Results from patent US10905770B2, “Topical delivery of therapeutic agents using cell-penetrating peptides for the treatment of age-related macular degeneration and other eye diseases” (priority 2017, dated 2021).
Entries after “also recorded” stand apart in the source; their conditions may differ.

Tests used:
[1] = Procedure: (§1) Lutein was dissolved in DMSO (10 mg/mL) and titrated into water. […] As a proxy for topical delivery into the eye by eye drop, 50 μL of lutein plus hexa-arginine (SEQ ID NO: 258) or lutein alone was applied to one side of the outer shell membrane of a chicken egg, and the material that crossed the membrane in water was collected after 2 minutes. The level of lutein was measured by absorbance. The experiment was conducted three times (n=3).
as §1, with “Zeaxanthin” for “Lutein”, “DMF” for “DMSO”, “zeaxanthin” for “lutein”
as §1, with “into water, zeaxanthin was dissolved in DMF (10 mg/mL) and titrated into water, and then lutein and zeaxanthin were mixed in a 1:1 ratio.” for “into water.”, “lutein and zeaxanthin” for “lutein”, “NO: 258),” for “NO: 258)”, “lutein and zeaxanthin without CPP,” for “lutein alone”
as §1, with “Dexamethasone” for “Lutein”, “DMSO” for “DMSO (10 mg/mL)”, “dexamethasone” for “lutein”, “presence” for “level”, “detected” for “measured”, “electrospray mass spectroscopy.” for “absorbance. The experiment was conducted three times (n=3).”
Tacrolimus was dissolved in DMSO and titrated into water. […] As a proxy for topical delivery into the eye by eye drop, 50 μL of tacrolimus plus hexa-arginine (SEQ ID NO: 258) or tacrolimus alone was applied to one side of the outer shell membrane of a chicken egg, and the material that crossed the membrane in water was collected after 2 minutes. The presence of tacrolimus was detected by electrospray mass spectroscopy.
as §1, with “Adalimumab” for “Lutein”, “fluorescently tagged” for “dissolved in DMSO (10 mg/mL)”, “purified.” for “titrated into water.”, “adalimumab” for “lutein”, “PBS” for “water”, “fluorescence.” for “absorbance.”
As a proxy for topical delivery into the eye by eye drop, 50 μL of glucose plus hexa-arginine (SEQ ID NO: 258) or glucose alone was applied to one side of the outer shell membrane of a chicken egg, and the material that crossed the membrane in water was collected after 2 minutes. The presence of glucose was detected by electrospray mass spectroscopy.
(§2) As a proxy for topical delivery into the eye by eye drop, 50 μL of BDNF plus hexa-arginine (SEQ ID NO: 258) or BDNF alone was applied to one side of the outer shell membrane of a chicken egg, and the material that crossed the membrane in PBS was collected after 2 minutes. The level of BDNF was measured by ELISA. The experiment was conducted three times (n=3).
as §2, with “GDNF” for “BDNF”, “ELISA.” for “ELISA. The experiment was conducted three times (n=3).”

[2] = tested on: geriatric macaques with naturally occurring age-related maculopathy; assay: Bruch's membrane thickness by electron microscopy, macaque study; type: in vivo, Macaca fascicularis
Procedure: (§3) The macaque study was conducted according to accepted guidelines. […] One eye per animal received 6 monthly injections of the same escalating dosages of L-4F or scrambled L-4F (total of 625 μg) in a 50 μL volume. The second eye per animal was not injected and was just observed.
Lipid deposition in the Bruch's membrane contributes to thickening of the BrM. Bruch's membrane thickness was measured at the temporal outer macula of enucleated eyes examined by electron microscopy post-mortem.

[3] = tested on: neutral lipids in and on the Bruch's membrane; assay: Oil red O staining of neutral lipids in Bruch's membrane, macaque study; type: in vivo, Macaca fascicularis; conditions: eyes injected with L-4F vs eyes injected with placebo; 6 monthly intravitreal injections (total 625 μg); after 6 months
Procedure: as §3
(§4) Clinical laboratory tests including serology, hemograms and liver enzymes were conducted, and ophthalmic examinations were also performed, including fundus photographs, optical coherence tomography (OCT), intraocular pressure testing and blood sampling. After 7 months, all animals were sacrificed and eyes were immediately prepared for histology. Histochemistry was performed with oil red O for neutral lipids and filipin for esterified cholesterol. […]
For staining with oil red O (ORO), specimens were treated with a 0.3% oil red O (Sigma-Aldrich Biochemie GmbH, Hamburg, Germany) solution (in 99% isopropanol) for 30 min at room temperature (RT), followed by immersion in a 60% isopropanol solution for 12 min. […] Image analysis was performed by grading the intensity of ORO staining (red color) of the Bruch's membrane (BrM) with scores ranging from 0 to 4, according to a qualitative evaluation assessed in four different regions in two separate slices from each eye (a total of 8 different regions from each eye). […]

[4] = tested on: complement factor D (CFD); assay: Immunohistochemistry of complement factor D, macaque study; type: in vivo, Macaca fascicularis; conditions: eyes injected with L-4F vs eyes injected with the scrambled peptide; fluorescence intensity
Procedure: as §3
as §4, with “histology.” for “histology. Histochemistry was performed with oil red O for neutral lipids and filipin for esterified cholesterol.”
(§5) Assays for immunohistochemistry of the membrane attack complex (MAC, C5b-9) and complement factor D (CFD) were performed identically except for employment of monoclonal antibodies specific for each complement component. […] Fluorescence microscopy was conducted using an inverted fluorescence microscope (DMI 6000 from Leica Microsystems, Wetzlar, Germany) and a filter set for λex/λem=470 nm/525 nm. For the semiquantitative analysis of fluorescence intensity of C5b-9, 3-5 different regions in one slide were analyzed for 3 different slides from each eye (a total of 9-15 different regions from each eye). For the semiquantitative analysis of fluorescence intensity of complement factor D, 3 distinct regions for each eye were evaluated.

[5] = tested on: esterified cholesterol in the Bruch's membrane; assay: Filipin staining of esterified cholesterol in Bruch's membrane, macaque study; type: in vivo, Macaca fascicularis; conditions: eyes injected with L-4F vs placebo-injected eyes; 6 monthly intravitreal injections
Procedure: as §3
as §4, with “histology.” for “histology. Histochemistry was performed with oil red O for neutral lipids and filipin for esterified cholesterol.”
For staining with filipin, specimens were washed once with deionized water for 5 min and then treated with 70% ethanol for 45 min. […] The specimens were then washed sequentially with PBS and deionized water, mounted with a mounting solution (Mowiol®, Carl Roth GmbH, Karlsruhe, Germany), covered with a glass cover slip, and examined using an inverted fluorescence microscope (DMI 6000 from Leica Microsystems, Wetzlar, Germany). Filipin fluorescence was observed using a UV filter set (λex/λem=350 nm/455 nm). […] Semiquantitative analysis of fluorescence intensity of filipin at three separate regions of the BrM was done on three different slides from the same eye (a total of 9 different regions from each eye).

[6] = tested on: geriatric macaques with naturally occurring age-related maculopathy; assay: Macaque study: fellow non-injected eye, tolerability and blood hsCRP; type: in vivo
Procedure: as §3
Clinical laboratory tests including serology, hemograms and liver enzymes were conducted, and ophthalmic examinations were also performed, including fundus photographs, optical coherence tomography (OCT), intraocular pressure testing and blood sampling. After 7 months, all animals were sacrificed and eyes were immediately prepared for histology. Histochemistry was performed with oil red O for neutral lipids and filipin for esterified cholesterol. Immunohistochemistry was performed against complement factor D (CFD) and the membrane attack complex (MAC, C5b-9), both being markers of activation of the alternative complement pathway.
Circulating hsCRP, which is mainly produced in the liver, is a non-specific marker for systemic inflammation.

[7] = tested on: membrane attack complex (MAC, C5b-9); assay: Immunohistochemistry of membrane attack complex, macaque study; type: in vivo, Macaca fascicularis; conditions: eyes injected with L-4F vs eyes injected with the scrambled peptide; fluorescence intensity
Procedure: as §3
as §4, with “histology.” for “histology. Histochemistry was performed with oil red O for neutral lipids and filipin for esterified cholesterol.”
as §5

[8] = tested on: rat eye in vivo; assay: CPP-assisted delivery into rat eye in vivo
Procedure: An eye drop of 50 μL of bevacizumab plus hexa-arginine (SEQ ID NO: 258) was applied topically to the front of one of the eyes of a live rat, and then the rat was sacrificed 60 minutes after topical application.

[9] = tested on: geographic atrophy (GA); conditions: vs placebo, cited from earlier work

C[C@@H]1C[C@H]2[C@@H]3CCC4=CC(=O)C=C[C@]4(C)[C@@]3(F)[C@@H](O)C[C@]2(C)[C@@]1(O)C(=O)CO [dexamethasone, reference compound]
crossing of the egg shell membrane (electrospray mass spectroscopy) [1]: did not cross

CC1=C[C@H](O)CC(C)(C)[C@H]1/C=C/C(C)=C/C=C/C(C)=C/C=C/C=C(C)/C=C/C=C(C)/C=C/C1=C(C)C[C@@H](O)CC1(C)C [lutein]
crossing of the egg shell membrane [1]: did not cross

C=CC[C@@H]1/C=C(\C)C[C@H](C)C[C@H](OC)[C@H]2O[C@@](O)(C(=O)C(=O)N3CCCC[C@H]3C(=O)O[C@H](/C(C)=C/[C@@H]3CC[C@@H](O)[C@H](OC)C3)[C@H](C)[C@@H](O)CC1=O)[C@H](C)C[C@@H]2OC [tacrolimus, reference compound]
crossing of the egg shell membrane (electrospray mass spectroscopy) [1]: did not cross

CC1=C(/C=C/C(C)=C/C=C/C(C)=C/C=C/C=C(C)/C=C/C=C(C)/C=C/C2=C(C)C[C@@H](O)CC2(C)C)C(C)(C)C[C@H](O)C1 [zeaxanthin]
crossing of the egg shell membrane [1]: a very small amount

Ac-DWFKAFYDKVAEKFKEAF-NH2 [L-4F]
reduction of BrM thickness ([2]; eyes injected with L-4F vs eyes injected with placebo): about 24%
BrM thickness ([2]; eyes injected with L-4F, temporal outer macula, electron microscopy post-mortem, ±SE): 1.31 μm
reduction of lipid deposits from the BrM (staining with oil red O) [3]: about 56%
decreased level of complement factor D [4]: about 41%
reduction of esterified cholesterol in the BrM (filipin fluorescence) [5]: about 68%
blood level of high-sensitivity C-reactive protein (hsCRP) ([6]; after 6 monthly intravitreal injections vs day prior to first injection): did not increase
tolerability (adverse events, side effects) ([6]; macaques intravitreally injected with L-4F): well tolerated
decreased level of MAC (C5b-9) in the BrM and the choriocapillaris [7]: about 58%

adalimumab
amount that crossed the membrane with hexa-arginine compared with without [1]: markedly greater
fluorescence of material that crossed the egg shell membrane [1]: 1359±3

bevacizumab: anti-VEGF antibody
delivery into the posterior segment (the vitreous and the retina) of the treated eye ([8]; 50 μL eye drop, bevacizumab 25 mg/mL plus hexa-arginine 5 mg/mL, 60 minutes, human IgG ELISA): entered; also recorded: delivered
level in the bloodstream ([8]; 60 minutes after topical application): not detected
level in the fellow untreated eye ([8]; 60 minutes after topical application to the other eye, human IgG ELISA): not detected

lampalizumab: antigen-binding fragment (Fab) of a humanized monoclonal antibody targeting CFD
reduction in the rate of GA enlargement, and hence the area of GA, in the injected eye ([9]; monthly intravitreal injections of 10 mg for 18 months, fundus autofluorescence): about 20%
reduction in the GA growth rate, and hence the area of GA ([9]; subgroup positive for CFI mutations, monthly intravitreal 10 mg for 18 months): about 44%

B1: GDNF: glial cell-derived neurotrophic factor (protein, UniProt P39905 78-211, looked up)
Glial cell line-derived …: SPDKQMAVLPRRERNRQAAAANPENSRGKGRRGQRGKNRGCVLTAIHLNVTDLGLGYETKEELIFRYCSGSCDAAETTYDKILKNLSRNRRLVSDKVGQACCRPIAFDDDLSFLDDNLVYHILRKHSAKRCGCI
crossing of the egg shell membrane [1]: did not cross

B2: BDNF: brain-derived neurotrophic factor (protein, UniProt P23560 19-247, looked up)
Neurotrophic factor BDNF …: APMKEANIRGQGGLAYPGVRTHGTLESVNGPKAGSRGLTSLADTFEHVIEELLDEDQKVRPNEENNKDADLYTSRVMLSSQVPLEPPLLFLLEEYKNYLDAANMSMRVRRHSDPARRGELSVCDSISEWVTAADKKTAVDMSGGTVTVLEKVPVSKGQLKQYFYETKCNPMGYTKEGCRGIDKRHWNSQCRTTQSYVRALTMDSKKRIGWRFIRIDTSCVCTLTIKRGR
crossing of the egg shell membrane [1]: did not cross
